US6156700A, “3-(1,2-Benzisothiazol- and isoxazol-5-yl)-2,4(1H,3H)-pyrimidinedione or thione and 3-(1,2-benzisothiazol- and isoxazol-5-yl)-4(3H)-pyrimidinone or thione herbicidal agents” (American Cyanmid Company, priority 1998, dated 2000)

How the values were obtained:
ORYSAT Rice, Tebonnet = experiment: Tolerance of transplanted rice to post-transplant application (Table III); assay type: in vivo, Oryza sativa; parameters: scale not given here; settings: crop tolerance
Description: The tolerance of transplanted rice to post-transplanted herbicide applications is determined as follows: two ten-day-old rice seedlings (cv. Tebonnet) are transplanted into silt loam soil in 32 oz. plastic containers with a diameter of 10.5 cm and no drainage holes. After transplanting, the containers are flooded and the water level is maintained at 1.5 to 3 cm above the soil surface. Three days after transplanting, the flooded soil surface of the containers is treated with the selected aqueous/acetone 50/50 v/v mixture containing the test compounds to provide the equivalent of about 0.0313 to 0.500 kg/ha of active ingredient. The treated containers are placed on greenhouse benches, watered such that the water level is maintained as stated above, and cared for in accordance with conventional greenhouse procedures. Three to four weeks after treatment, the test is terminated and each container is examined and herbicidal effect rated according to the rating system provided in Example 185. The compounds evaluated are reported by compound number given in Example 185.

[1] = tested on: Morningglory Spp., Ipomoea Spp.; experiment: Postemergence herbicidal evaluation, IPOSS; assay type: in vivo; settings: 0.2500 kg/ha
Description: In the tests, seedling plants are grown in jiffy flats for about two weeks. The test compounds are dispersed in 50/50 acetone/water mixtures containing 0.5% TWEEN®20, a polyoxyethylene sorbitan monolaurate surfactant of Atlas Chemical Industries, in sufficient quantities to provide the equivalent of about 0.0157 kg to 0.500 kg per hectare of active compound when applied to the plants through a spray nozzle operating at 40 psi for a predetermined time. After spraying, the plants are placed on greenhouse benches and are cared for in accordance with conventional greenhouse procedures. From four to five weeks after treatment, the seedling plants are examined and rated according to the rating system set forth below. Where more than one test is involved for a given compound, the data are averaged.
(§1) Results of herbicide evaluation are expressed on a rating scale (0-9). The scale is based upon a visual observation of plant stand, vigor, malformation, size, chlorosis and overall plant appearance as compared with a control.

[2] = tested on: SAGPY Arrowhead (Pygmaea); experiment: Preemergence weed control, flooded paddy (Table III); assay type: in vivo, Sagittaria pygmaea; parameters: scale not given here
Description: (§2) Preemergence herbicidal activity under flooded paddy conditions is determined as follows: plant seeds or propagating organs are planted in the top 0.5 cm of silt loam soil in 32 oz. plastic containers with a diameter of 10.5 cm and no drainage holes. Water is added to these containers and maintained at 1.5 to 3 cm above the soil surface for the duration of the experiment. The test compounds are applied as aqueous/acetone mixtures 50/50 v/v pipetted directly into the flood water to give the equivalent of about 0.0313 to 0.500 kg/ha of active ingredient. The treated containers are placed on greenhouse benches and cared for in accordance with conventional greenhouse procedures. Three to four weeks after treatment, the test is terminated and each container is examined and herbicidal effect rated according to the rating system provided in Example 185. The compounds evaluated are reported by compound number given in Example 185.

MOOVA Monochoria = experiment: Postemergence weed control, flooded paddy (Table IV); assay type: in vivo, Monochoria vaginalis; parameters: scale not given here
Description: (§3) Plastic containers containing weeds which are 3 to 5 cm tall and rice seedlings at the 1.5 to 2.5 leaf stage are flooded with water. The water is maintained at 1.5 to 3 cm above the soil surface for the duration of the experiment. Test compounds are applied as aqueous/acetone mixtures 50/50 v/v directly into the flood water to provide the equivalent of about 0.0313 to 0.500 kg/ha of active ingredient. The treated containers are placed on greenhouse benches and cared for in accordance with conventional greenhouse procedures. Three to four weeks after treatment, the test is terminated and each container is examined and herbicidal effect rated according to the rating system provided in Example 185. The compounds evaluated are reported by compound number given in Example 185.

[3] = tested on: Morningglory Spp., Ipomoea Spp.; experiment: Preemergence herbicidal evaluation, IPOSS; assay type: in vivo; settings: 0.2500 kg/ha
Description: as §1
(§4) The preemergence herbicidal activity of the test compounds of the present invention is exemplified by the following tests in which the seeds of a variety of monocotyledonous and dicotyledonous plants are separately mixed with potting soil and planted on top of approximately one inch of soil in separate pint cups. After planting, the cups are sprayed with the selected aqueous acetone solution containing test compound in sufficient quantity to provide the equivalent of about 0.0156 to 0.500 kg per hectare of test compound per cup. The treated cups are then placed on greenhouse benches, watered and cared for in accordance with conventional greenhouse procedures. From four to five weeks after treatment, the tests are terminated and each cup is examined and rated according to the rating system provided in Example 185.
(§5) The compounds evaluated are reported by compound number given in Example 185.

CYPSE Flatsedge [4] = experiment: Preemergence weed control, flooded paddy (Table III); assay type: in vivo, Cyperus serotinus; parameters: scale not given here
Description: as §2

[5] = tested on: Sicklepod, Cassia obtusifolia; experiment: Preemergence herbicidal evaluation, CASOB; assay type: in vivo, L.; settings: 0.2500 kg/ha
Description: as §1, §4, §5

[6] = tested on: Soybean, Williams, Glycine max; experiment: Postemergence herbicidal evaluation, GLXMAW; assay type: in vivo, (L.) Merr. cv Williams; settings: 0.2500 kg/ha
In short: (§6)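 Each compound, dispersed in a 1:1 acetone–water mixture bearing 0.5% TWEEN 20, was sprayed onto roughly two-week-old seedlings at about 0.0157–0.500 kg/ha. Visual 0–9 ratings against control were made 4–5 weeks post-treatment and averaged over repeat tests.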

[7] = tested on: Lambsquarters, Common, Chenopodium album; experiment: Postemergence herbicidal evaluation, CHEAL; assay type: in vivo, L.; settings: 0.2500 kg/ha
In short: as §6

[8] = tested on: SAGPY Arrowhead (Pygmaea); experiment: Postemergence weed control, flooded paddy (Table IV); assay type: in vivo, Sagittaria pygmaea; parameters: scale not given here
Description: as §3

[9] = tested on: Velvetleaf, Abutilon theophrasti; experiment: Postemergence herbicidal evaluation, ABUTH; assay type: in vivo, Medic.; settings: 0.2500 kg/ha
In short: as §6

CYPSE Flatsedge [10] = experiment: Postemergence weed control, flooded paddy (Table IV); assay type: in vivo, Cyperus serotinus; parameters: scale not given here
Description: as §3

Row | SMILES | herbicidal effect rating (ORYSAT Rice, Tebonnet; 0.0625 kg/ha) | herbicidal effect rating (ORYSAT Rice, Tebonnet; 0.1250 kg/ha) | herbicidal effect rating (ORYSAT Rice, Tebonnet; 0.2500 kg/ha) | herbicidal effect rating (ORYSAT Rice, Tebonnet; 0.5000 kg/ha) | herbicide rating (0-9) [1] | herbicidal effect rating ([2]; 0.0625 kg/ha) | herbicidal effect rating ([2]; 0.1250 kg/ha) | herbicidal effect rating ([2]; 0.2500 kg/ha) | herbicidal effect rating ([2]; 0.5000 kg/ha) | herbicidal effect rating (MOOVA Monochoria; 0.1250 kg/ha) | herbicidal effect rating (MOOVA Monochoria; 0.2500 kg/ha) | herbicidal effect rating (MOOVA Monochoria; 0.5000 kg/ha) | herbicide rating (0-9) [3] | herbicidal effect rating (CYPSE Flatsedge [4]; 0.0625 kg/ha) | herbicidal effect rating (CYPSE Flatsedge [4]; 0.1250 kg/ha) | herbicidal effect rating (CYPSE Flatsedge [4]; 0.2500 kg/ha) | herbicidal effect rating (CYPSE Flatsedge [4]; 0.5000 kg/ha) | herbicide rating (0-9) [5] | herbicide rating (0-9) [6] | herbicidal effect rating ([8]; 0.1250 kg/ha) | other results
1 | COc1cc(C)ccc1-c1nsc2ccc(-n3c(=O)cc(C(F)(F)F)n(C)c3=O)cc12 [Compound 7, 3-[3-(2-Methoxy-p-tolyl)-1,2-benzisothiazol-5-yl]-1-methyl-6-(trifluoromethyl)-2,4(1H,3H)-pyrimidinedione] | 8.0 | 7.0 | 7.0 | 9.0 | 9.0 | 8.0 | 9.0 | 9.0 | 9.0 | 9.0 | 9.0 | 9.0 | 9.0 | 7.0 | 8.0 | 7.0 | 9.0 | 9.0 | 9.0 | 4.0 | herbicidal effect rating (ORYSAT Rice, Tebonnet; 0.0313 kg/ha): 6.0; herbicidal effect rating ([2]; 0.0313 kg/ha): 6.0; herbicidal effect rating (CYPSE Flatsedge [4]; 0.0313 kg/ha): 7.0; herbicide rating (0-9) [7]: 9.0; herbicidal effect rating ([8]; 0.2500 kg/ha): 9.0; herbicidal effect rating ([8]; 0.5000 kg/ha): 9.0; herbicide rating (0-9) [9]: 9.0; herbicidal effect rating (CYPSE Flatsedge [10]; 0.1250 kg/ha): 9.0; herbicidal effect rating (CYPSE Flatsedge [10]; 0.2500 kg/ha): 9.0; herbicidal effect rating (CYPSE Flatsedge [10]; 0.5000 kg/ha): 8.0
2 | COC(=O)COc1cc(C)ccc1-c1nsc2ccc(-n3c(=O)cc(C(F)(F)F)n(C)c3=O)cc12 [Compound 8, Methyl {{6-{5-[3,6-dihydro-3-methyl-4-(trifluoromethyl)-2,6-dioxo-1(2H)-pyrimidinyl]-1,2-benzisothiazol-3-yl}-m-tolyl}oxy}acetate] | 7.0 | 9.0 | 9.0 | 9.0 | 9.0 | 9.0 | 9.0 | 9.0 | 9.0 | 9.0 | 9.0 | 9.0 | 9.0 | 9.0 | 9.0 | 9.0 | 9.0 | 9.0 | 9.0 | 4.0 | herbicidal effect rating (ORYSAT Rice, Tebonnet; 0.0313 kg/ha): 7.0; herbicidal effect rating ([2]; 0.0313 kg/ha): 6.0; herbicidal effect rating (CYPSE Flatsedge [4]; 0.0313 kg/ha): 4.0; herbicide rating (0-9) [7]: 9.0; herbicidal effect rating ([8]; 0.2500 kg/ha): 9.0; herbicidal effect rating ([8]; 0.5000 kg/ha): 9.0; herbicide rating (0-9) [9]: 9.0; herbicidal effect rating (CYPSE Flatsedge [10]; 0.1250 kg/ha): 7.0; herbicidal effect rating (CYPSE Flatsedge [10]; 0.2500 kg/ha): 7.0; herbicidal effect rating (CYPSE Flatsedge [10]; 0.5000 kg/ha): 9.0
3 | COC(=O)C(C)Oc1cc(C)ccc1-c1nsc2ccc(-n3c(=O)cc(C(F)(F)F)n(C)c3=O)cc12 (centres unmarked) [Compound 9, Methyl 2-{{6-{5-[3,6-dihydro-3-methyl-4-(trifluoromethyl)-2,6-dioxo-1(2H)-pyrimidinyl]-1,2-benzisothiazol-3-yl}-m-tolyl}oxy}propionate] | 7.0 | 7.0 | 8.0 | 9.0 | 9.0 | 2.0 | 8.0 | 8.0 | 9.0 | 9.0 | 9.0 | 9.0 | 9.0 | 4.0 | 9.0 | 9.0 | 9.0 | 9.0 | 9.0 | 2.0 | herbicidal effect rating (ORYSAT Rice, Tebonnet; 0.0313 kg/ha): 6.0; herbicidal effect rating ([2]; 0.0313 kg/ha): 0.0; herbicidal effect rating (CYPSE Flatsedge [4]; 0.0313 kg/ha): 2.0; herbicidal effect rating ([8]; 0.2500 kg/ha): 9.0; herbicidal effect rating ([8]; 0.5000 kg/ha): 9.0; herbicide rating (0-9) [9]: 9.0; herbicidal effect rating (CYPSE Flatsedge [10]; 0.1250 kg/ha): 2.0; herbicidal effect rating (CYPSE Flatsedge [10]; 0.2500 kg/ha): 7.0; herbicidal effect rating (CYPSE Flatsedge [10]; 0.5000 kg/ha): 9.0
4 | Cc1cc(O)c(-c2nsc3ccc(-n4c(=O)cc(C(F)(F)F)n(C)c4=O)cc23)cc1C [Compound 11, 3-[3-(6-Hydroxy-3,4-xylyl)-1,2-benzisothiazol-5-yl]-1-methyl-6-(trifluoromethyl)-2,4(1H,3H)-pyrimidinedione] | 2.0 | 2.0 | 3.0 | 3.0 | 9.0 | 0.0 | 0.0 | 2.0 | 9.0 | 9.0 | 9.0 | 9.0 | 5.0 | 2.0 | 2.0 | 2.0 | 7.0 | 3.0 | 6.0 | 0.0 | herbicide rating (0-9) [7]: 9.0; herbicidal effect rating ([8]; 0.2500 kg/ha): 4.0; herbicidal effect rating ([8]; 0.5000 kg/ha): 7.0; herbicide rating (0-9) [9]: 9.0; herbicidal effect rating (CYPSE Flatsedge [10]; 0.1250 kg/ha): 0.0; herbicidal effect rating (CYPSE Flatsedge [10]; 0.2500 kg/ha): 0.0; herbicidal effect rating (CYPSE Flatsedge [10]; 0.5000 kg/ha): 0.0
